Assay results published in the supplement of paper PMC8882468.

Assays:
Experiment in all cases: CTG-3D luminescence at 96 h relative to day-0 seeding control (ratio to day 0); higher = more growth / less cytotoxicity
HCI-005.E2 = tested on: HCI-005.E2 (organoid from a breast cancer xenograft with a HER2-positive history)
Experimental: (§1)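 PDX-derived breast cancer organoids (PDxO) in 384-well Matrigel plates, 8-point dose (0.000000625-100 uM), 96 h at 37 C; CellTiter-Glo 3D luminescence normalised to the day-0 seeding control (mean of 4 technical replicates over mean of 4 day-0 wells).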

HCI-017.E2 = tested on: HCI-017.E2 (organoid from an ER-positive breast cancer xenograft)
Experimental: as §1

HCI-002 = tested on: HCI-002 (organoid from a triple-negative breast cancer xenograft)
Experimental: as §1

O=c1[nH]cc(F)c(=O)[nH]1 [5-fluorouracil]
CTG-3D luminescence at 96 h
Details	12.5 pM	0.00025 µM	0.005 µM	0.1 µM	1 µM	10 µM	100 µM	625 fM
HCI-005.E2	–	–	–	–	1.78	1.18	0.891	1.69
HCI-017.E2	1.94	2.02	1.96	2.04	2.05	1.88	1.64	2.219

CTG-3D luminescence at 96 h
Details	12.5 pM	0.00025 µM	0.005 µM	0.1 µM	1 µM	10 µM	100 µM	625 fM
HCI-002, days in culture: 62	2.85	2.76	3.08	2.64	2.28	2.07	1.07	3.16
HCI-002, days in culture: 82	2.94	2.81	2.15	2.78	2.66	1.66	1.08	3.04
HCI-002, days in culture: 91	4.34	3.73	3.78	4.16	2.98	3.14	1.6	4.03
HCI-002, days in culture: 191	2.53	2.58	2.45	2.4	2.34	1.91	1.22	2.43
HCI-002, days in culture: 209	2.41	2.39	2.11	2.23	2.05	1.43	1.02	2.45
HCI-002, days in culture: 227	6.3	6.54	6.31	7.6	5.98	3.45	1.93	6.49
HCI-017.E2, days in culture: 85	2.76	2.47	2.46	2.16	2.41	1.85	1.6	2.21
